Each structure is given as a SMILES string. Bounds are passed on as bounds.

In data set [1] the test system is HCV genotype 1b subgenomic replicon (Con1 strain). Description: microbe, parasite or virus in culture. In kind it is cell-based. To be noted: Hepatitis C virus; 24 hours post-treatment; Renilla luciferase; Huh7.5 cells.
Text: The replicon used in these studies was a transient genotype 1b subgenomic replicon generated from the Con1 strain. In this replicon, the HCV internal ribosome entry site (IRES) within the 5′ non-translated region (NTR) drives expression of the first 32 amino acids of the core protein fused to humanized Renilla luciferase (hRluc). The encephalomycarditis IRES lies 3′ to the hRluc open reading frame (ORF) and drives expression of non-structural (NS) proteins NS3 through NS5B. Huh7.5 cells (U.S. patent application Ser. No. 10/534,571) harboring this replicon were seeded into 96-well plates at 20,000 cells per well in medium containing 10% FBS, 1× penicillin/streptomycin, 1× non-essential amino acids, and 100 ng/ml Fungizone. After a four hour attachment period, compound was added to wells using a five point 3-fold serial dilution series with four replicate treatments per dose. Final DMSO percentage was 1% in a total volume of 200 ul. Compound-mediated HCV inhibition and toxicity were assayed 24 hours post-treatment using Renilla luciferase readout and an ATP viability assay (CellTiter-Glo, Promega, Madison, Wis., USA), respectively.
Data set [2] can be described thus: ATP viability assay (CellTiter-Glo) in replicon-harboring Huh7.5 cells. In kind it is cell-based, human. To be noted: human; 24 hours post-treatment; Huh7.5 cells harboring transient genotype 1b replicon. How it is done: Inhibition of HCV replication by AP0089652, AP0080978 (enantiomer 2 from Example 1) and AP0080977 (enantiomer 1 from Example 1) were assayed by exposing cells harboring an HCV genotype 1b replicons to the compounds and quantitating HCV replicon levels following exposure. The replicon used in these studies was a transient genotype 1b subgenomic replicon generated from the Con1 strain. In this replicon, the HCV internal ribosome entry site (IRES) within the 5′ non-translated region (NTR) drives expression of the first 32 amino acids of the core protein fused to humanized Renilla luciferase (hRluc). The encephalomycarditis IRES lies 3′ to the hRluc open reading frame (ORF) and drives expression of non-structural (NS) proteins NS3 through NS5B. Huh7.5 cells (U.S. patent application Ser. No. 10/534,571) harboring this replicon were seeded into 96-well plates at 20,000 cells per well in medium containing 10% FBS, 1× penicillin/streptomycin, 1× non-essential amino acids, and 100 ng/ml Fungizone. After a four hour attachment period, compound was added to wells using a five point 3-fold serial dilution series with four replicate treatments per dose. […] Compound-mediated HCV inhibition and toxicity were assayed 24 hours post-treatment using Renilla luciferase readout and an ATP viability assay (CellTiter-Glo, Promega, Madison, Wis., USA), respectively. […]
Background: In ATP-based viability assays light output follows the ATP content of the culture.

The subject of data set [3] is genotype 1a replicon H/FL-Neo(L+I) (H77 strain). As to the kind of experiment: Genotype 1a replicon in Huh7.5 cells, HCV RNA by blot hybridization. The class given is cell-based. To be noted: Hepatitis C virus, Huh7.5, 72 h.
Data set [4] is described as follows: Cell viability (CC50) in the Clone VI RT-PCR experiment. The class given is cell-based. The note with it: human, Experiment 1, genotype 1b. How it is done: Inhibition of HCV replication by compound AP0080978 (enantiomer 2 from Example 1) was also assayed by exposing cells harboring either HCV genotype 1a, HCV genotype 1b, HCV genotype 2a replicons. […] Final DMSO percentage was 1% in a total volume of 1 ml. After a 72 hour treatment period, total RNA was extracted, quantified via RiboGreen™ assay (Invitrogen-Molecular Probes, Eugene, Oreg., USA), and equivalent amounts of RNA were subjected to quantitative RT-PCR to quantify HCV RNA levels. […] For each replicate culture, HCV RNA levels were measured by blot hybridization and normalized to β-actin RNA levels. Cytotoxicity was measured using an established neutral red dye uptake assay (Korba and Gerin (1992) Antiviral Res 19:55; Okuse et al (2005) Antiviral Res 65: 23). […] Activity and toxicity against genotype 2a was evaluated in Huh7 cells harboring a stable hRluc-containing subgenomic genotype 2a replicon containing sequence from both J6 and JFH1 strains. […]
Additional compounds of formula (I) shown in FIG. 1 were also shown to inhibit HCV RNA replication. The effects of various compounds of formula (I) on HCV RNA replicon levels were determined by measuring HCV replicon RNA levels in cells treated with various concentrations of the compounds. […] Total RNA was extracted 72 hours later, and HCV and GAPDH RNA levels were quantified via quantitative RT-PCR. […]

The test system of data set [5] is parental genotype 1b (Con1 strain) subgenomic reporter replicon. As to the kind of experiment: Parental genotype 1b reporter replicon IVT RNA in Huh7.5 cells. The note with it: Hepatitis C virus. In kind it is cell-based. An excerpt: To identify nucleotide changes that confer resistance to 80978, replicon RNA was reverse transcribed and amplified from total RNA extracted from 80978-resistant and control Clone A cells. […] One silent mutation at amino acid 1771 was also observed. Each mutation was introduced independently into a stable genotype 1b (Con1 strain) subgenomic reporter replicon plasmid via site-directed mutagenesis. […] The sequence of the wild type NS4B encoding sequence is provided as SEQ ID NO:1, the sequence of the mutated NS4B nucleotide sequence encoding the F1809V mutation is provided as SEQ ID NO:3, and the sequence of the mutated NS4B nucleotide sequence encoding the F1809L mutation is provided as SEQ ID NO:5. The sequence of the wild type NS4B protein is provided as SEQ ID NO:2, the sequence of the mutated NS4B protein with the F1809V mutation is provided as SEQ ID NO:4, and the sequence of the mutated NS4B nucleotide sequence encoding the F1809L mutation is provided as SEQ ID NO:6. […] A differential response was observed between cells electroporated with different replicon RNAs.

By EC50 is commonly meant the concentration at which the effect is half-maximal. Broadly, the CC50 is the concentration at which the toxic effect on the cells reaches its halfway point. Low readings indicate greater toxicity to the cells, high ones lower toxicity to the cells. Regarding `O=C(NCc1cccs1)c1nn2c(c1Cl)N[C@H](c1ccco1)C[C@@H]2C(F)(F)F` (single isomer, unassigned) [Compound 80978], the EC50 was 1.8 µM in data set [1], 7.8 µM in data set [3] and 0.29 µM in data set [5]. Further, the CC50 at 24 h in data set [2] is above 100 µM. The same compound registered a CC50 at 72 h in data set [4] above 100 µM.

The values above are taken from patent US8809344B2, “Compounds, compositions, and methods for control of hepatitis C viral infections” (priority 2008, dated 2014).
